Measured values taken from ChEMBL document CHEMBL1152756, “Photodynamic effects of novel 5,15-diaryl-tetrapyrrole derivatives on human colon carcinoma cells” (Bioorg Med Chem, 2009).
In brackets after ≈: the same amount, converted by molar mass. Activity calls are given as the source filed them. The calls are words filed in the database; no cut-off is given here.

Legend:
HCT-116 [1] = experiment: Induction of apoptosis in human HCT116 cells assessed as decrease in survivin protein expression at IC50 after 24 hrs irradiated with tungsten-halogen white light for 2 hrs followed by incubation in drug free medium for 24 hrs […]; type: functional, cell-based
HCT-116 [2] = experiment: Cell cycle arrest in human HCT116 cells assessed as accumulation at G2/M phase at IC50 after 24 hrs irradiated with tungsten-halogen white light for 2 hrs followed by incubation in drug free medium for 24 hrs by flow cytometry; type: functional
HCT-116 [3] = experiment: Cell cycle arrest in human HCT116 cells assessed as accumulation at S phase at IC50 after 24 hrs irradiated with tungsten-halogen white light for 2 hrs followed by incubation in drug free medium for 24 hrs by flow cytometry; type: functional
HCT-116 [4] = experiment: Phototoxicity against human HCT116 cells […] after 24 hrs irradiated with LED red light for 2 hrs followed by incubation in drug free medium for 24 hrs by MTT assay; type: functional, cell-based; settings: HCT-116, light or radiation study
HCT-116 [5] = experiment: Induction of apoptosis in human HCT116 cells at IC50 after 24 hrs irradiated with tungsten-halogen white light for 2 hrs followed by incubation in drug free medium for 24 hrs using annexin V-FITC staining by FACS; type: functional, cell-based
HCT-116 [6] = experiment: Cell cycle arrest in human HCT116 cells assessed as accumulation at G1 phase at IC50 after 24 hrs irradiated with tungsten-halogen white light for 2 hrs followed by incubation in drug free medium for 24 hrs by flow cytometry; type: functional
HCT-116 [7] = experiment: Induction of apoptosis in human HCT116 cells assessed as increase in Bax protein expression at IC50 after 24 hrs irradiated with tungsten-halogen white light for 2 hrs followed by incubation in drug free medium for 24 hrs […]; type: functional, cell-based
HCT-116 [8] = experiment: Induction of apoptosis in human HCT116 cells assessed as decrease in Bcl2 protein expression at IC50 after 24 hrs irradiated with tungsten-halogen white light for 2 hrs followed by incubation in drug free medium for 24 hrs […]; type: functional, cell-based
HCT-116 [9] = experiment: Induction of ROS generation in human HCT116 cells at IC50 after 24 hrs irradiated with tungsten-halogen white light for 2 hrs followed by incubation in drug free medium for 24 hrs by flow cytometry; type: functional, cell-based
HCT-116 [10] = experiment: Phototoxicity against human HCT116 cells […] after 24 hrs irradiated with tungsten-halogen white light for 2 hrs followed by incubation in drug free medium for 24 hrs by MTT assay in presence of nitric oxide synthase inhibitor L-NMMA; type: functional, cell-based; settings: HCT-116, light or radiation study
HCT-116 [11] = experiment: Phototoxicity against human HCT116 cells […] after 24 hrs irradiated with tungsten-halogen white light for 2 hrs followed by incubation in drug free medium for 24 hrs by MTT assay; type: functional, cell-based; settings: HCT-116, light or radiation study
HCT-116 [12] = experiment: Induction of NO radical generation in human HCT116 cells at IC50 after 24 hrs irradiated with tungsten-halogen white light for 2 hrs followed by incubation in drug free medium for 24 hrs; type: functional, cell-based

SMILES | Activity (HCT-116 [1]) | Activity (HCT-116 [2]) [%] | Activity (HCT-116 [3]) [%] | IC50 (HCT-116 [4]) [nM] | Activity (HCT-116 [5]) | Activity (HCT-116 [6]) [%] | Activity (HCT-116 [7]) | Activity (HCT-116 [8]) | Activity (HCT-116 [9]) | IC50 (HCT-116 [10]) [ng/mL] | IC50 (HCT-116 [11]) [ng/mL] | Activity (HCT-116 [12])
Oc1cccc(-c2c3nc(c(-c4cccc(O)c4)c4ccc([nH]4)c(-c4cccc(O)c4)c4nc(c(-c5cccc(O)c5)c5ccc2[nH]5)CC4)C=C3)c1 [TEMOPORFIN] | Active | 27.17 | 21.29 | 41 | Active | 51.53 | Active | Active |  |  |  | 
COc1cccc(-c2c3nc(cc4ccc([nH]4)c(-c4ccccc4)c4nc(cc5ccc2[nH]5)C=C4)C=C3)c1 | Active | 29.6 | 17.93 |  | Active | 52.4 | Active | Active |  |  |  | 
C1=Cc2nc1cc1ccc([nH]1)c(-c1ccccc1)c1nc(cc3ccc([nH]3)c2-c2ccccc2)C=C1 | Active | 29.27 | 17.89 |  | Active | 52.83 | Active | Active |  |  |  | 
Oc1cccc(-c2c3nc(cc4ccc([nH]4)c(-c4ccccc4)c4nc(cc5ccc2[nH]5)C=C4)C=C3)c1 | Active | 29.69 | 21.28 | 3.96 | Active | 49.03 | Active | Active | Active | 0.482 | 0.683 (≈ 1.43 nM) | Active
Oc1cccc(-c2c3nc(cc4ccc([nH]4)c(-c4ccccc4)c4nc(cc5ccc2[nH]5)C=C4)CC3)c1 |  |  |  | 1.32 |  |  |  |  |  |  |  | 
